# Data published in the kinase profiling compilation of Christmann-Franck et al. (2016).
# What was measured:
# Experiment in all cases: radiometric filter-binding kinase assay, Kinase HotSpot
# Details in all cases: compound 0.5 µM; ATP 10 µM
# [1] = molecular target: ACVR1B (human) (UniProt P36896)
# [2] = molecular target: AURKB (human) (UniProt Q96GD4)
# [3] = molecular target: AXL (human) (UniProt P30530)
# [4] = molecular target: CAMK1D (human) (UniProt Q8IU85)
# [5] = molecular target: CDK5 CDK5R1 p35 (human) (UniProt Q00535+Q15078)
# [6] = molecular target: CDK9 CCNK (human) (UniProt O75909+P50750)
# [7] = molecular target: CDK9 CCNT1 (human) (UniProt P50750+O60563)
# [8] = molecular target: CLK1 (human) (UniProt P49759)
# [9] = molecular target: CSNK1G1 (human) (UniProt Q9HCP0)
# [10] = molecular target: DAPK1 (human) (UniProt P53355)
# [11] = molecular target: FLT3 (human) (UniProt P36888)
# [12] = molecular target: FYN (human) (UniProt P06241)
# [13] = molecular target: HCK (human) (UniProt P08631)
# [14] = molecular target: IGF1R (human) (UniProt P08069)
# [15] = molecular target: IKBKE (human) (UniProt Q14164)
# [16] = molecular target: INSR (human) (UniProt P06213)
# [17] = molecular target: JAK3 JH1 JH2 (human) (UniProt P52333)
# [18] = molecular target: MAP3K5 (human) (UniProt Q99683)
# [19] = molecular target: MAP3K8 (human) (UniProt P41279)
# [20] = molecular target: MAP3K9 (human) (UniProt P80192)
# [21] = molecular target: MAP4K5 (human) (UniProt Q9Y4K4)
# [22] = molecular target: MAPKAPK2 (human) (UniProt P49137)
# [23] = molecular target: MARK3 (human) (UniProt P27448)
# [24] = molecular target: NEK7 (human) (UniProt Q8TDX7)
# [25] = molecular target: PAK1 (human) (UniProt Q13153)
# [26] = molecular target: PAK3 (human) (UniProt O75914)
# [27] = molecular target: PBK (human) (UniProt Q96KB5)
# [28] = molecular target: PLK2 (human) (UniProt Q9NYY3)
# [29] = molecular target: PRKCE (human) (UniProt Q02156)
# [30] = molecular target: PRKCG (human) (UniProt P05129)
# [31] = molecular target: PRKG2 (human) (UniProt Q13237)
# [32] = molecular target: RPS6KA2 KD1 KD2 (human) (UniProt Q15349)
# [33] = molecular target: SRPK2 (human) (UniProt P78362)
# [34] = molecular target: SRPK3 (human) (UniProt Q9UPE1)
# [35] = molecular target: STK11 (human) (UniProt Q15831)
# [36] = molecular target: STK33 (human) (UniProt Q9BYT3)
# [37] = molecular target: TEK (human) (UniProt Q02763)
# [38] = molecular target: TGFBR1 (human) (UniProt P36897)
# [39] = molecular target: TNK2 (human) (UniProt Q07912)
# [40] = molecular target: TSSK1B (human) (UniProt Q9BXA7)
# [41] = molecular target: TXK (human) (UniProt P42681)
# [42] = molecular target: ULK1 (human) (UniProt O75385)
# Sequence of SRPK2 (human) (P78362 whole entry, looked up): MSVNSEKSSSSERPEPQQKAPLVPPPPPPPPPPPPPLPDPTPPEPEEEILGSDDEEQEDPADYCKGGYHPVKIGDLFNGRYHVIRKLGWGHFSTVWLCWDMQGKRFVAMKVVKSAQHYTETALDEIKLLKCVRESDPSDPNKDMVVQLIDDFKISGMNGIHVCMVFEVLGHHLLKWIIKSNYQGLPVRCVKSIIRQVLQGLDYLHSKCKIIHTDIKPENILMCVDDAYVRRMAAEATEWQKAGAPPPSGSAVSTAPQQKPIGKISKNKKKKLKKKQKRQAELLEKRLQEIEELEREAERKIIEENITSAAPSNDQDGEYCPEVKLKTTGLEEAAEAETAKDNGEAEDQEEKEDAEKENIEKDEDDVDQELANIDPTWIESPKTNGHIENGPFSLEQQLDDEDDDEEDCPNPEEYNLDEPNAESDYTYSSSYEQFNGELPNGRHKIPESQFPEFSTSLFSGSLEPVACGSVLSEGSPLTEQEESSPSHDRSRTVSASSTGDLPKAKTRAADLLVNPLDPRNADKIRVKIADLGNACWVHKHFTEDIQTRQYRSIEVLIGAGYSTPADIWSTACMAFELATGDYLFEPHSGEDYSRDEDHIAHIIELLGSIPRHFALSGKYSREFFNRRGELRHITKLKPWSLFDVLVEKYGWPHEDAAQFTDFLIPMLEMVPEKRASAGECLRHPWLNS
# Sequence of CAMK1D (human) (Q8IU85 whole entry, looked up): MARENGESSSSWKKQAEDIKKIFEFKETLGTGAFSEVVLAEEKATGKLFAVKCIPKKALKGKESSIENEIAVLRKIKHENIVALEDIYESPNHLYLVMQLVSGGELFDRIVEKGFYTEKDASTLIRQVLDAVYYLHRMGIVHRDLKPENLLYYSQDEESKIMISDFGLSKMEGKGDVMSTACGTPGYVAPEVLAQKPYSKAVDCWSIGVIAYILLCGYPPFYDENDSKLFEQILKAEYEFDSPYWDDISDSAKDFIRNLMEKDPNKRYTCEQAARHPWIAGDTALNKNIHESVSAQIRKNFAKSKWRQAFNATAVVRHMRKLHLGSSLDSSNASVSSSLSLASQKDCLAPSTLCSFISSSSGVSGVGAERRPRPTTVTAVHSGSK
# Sequence of MAP3K8 (human) (P41279 whole entry, looked up): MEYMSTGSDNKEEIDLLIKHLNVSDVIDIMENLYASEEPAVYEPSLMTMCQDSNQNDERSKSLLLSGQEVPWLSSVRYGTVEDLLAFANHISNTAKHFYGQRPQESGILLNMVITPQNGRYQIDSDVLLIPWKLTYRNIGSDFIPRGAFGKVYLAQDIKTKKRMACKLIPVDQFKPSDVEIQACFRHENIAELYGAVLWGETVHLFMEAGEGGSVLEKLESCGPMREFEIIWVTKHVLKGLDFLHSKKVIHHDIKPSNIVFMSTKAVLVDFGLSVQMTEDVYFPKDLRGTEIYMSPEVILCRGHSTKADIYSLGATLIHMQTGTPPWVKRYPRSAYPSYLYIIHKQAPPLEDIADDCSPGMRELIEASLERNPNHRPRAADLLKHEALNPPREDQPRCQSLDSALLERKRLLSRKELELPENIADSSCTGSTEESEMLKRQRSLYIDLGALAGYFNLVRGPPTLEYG
# Sequence of ACVR1B (human) (P36896 whole entry, looked up): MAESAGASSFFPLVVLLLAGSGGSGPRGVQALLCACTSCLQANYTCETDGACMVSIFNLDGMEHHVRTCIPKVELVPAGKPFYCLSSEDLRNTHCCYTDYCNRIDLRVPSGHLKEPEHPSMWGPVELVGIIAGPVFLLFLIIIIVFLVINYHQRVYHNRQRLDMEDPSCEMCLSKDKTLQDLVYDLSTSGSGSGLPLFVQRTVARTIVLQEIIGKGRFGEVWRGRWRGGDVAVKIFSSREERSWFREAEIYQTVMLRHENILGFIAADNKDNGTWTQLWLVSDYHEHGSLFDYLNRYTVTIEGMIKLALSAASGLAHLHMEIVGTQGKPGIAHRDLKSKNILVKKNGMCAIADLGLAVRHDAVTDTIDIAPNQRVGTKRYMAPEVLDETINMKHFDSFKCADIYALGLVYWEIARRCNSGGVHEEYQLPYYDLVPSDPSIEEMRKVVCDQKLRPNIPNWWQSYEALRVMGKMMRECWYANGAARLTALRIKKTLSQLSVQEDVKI
# Sequence of TSSK1B (human) (Q9BXA7 whole entry, looked up): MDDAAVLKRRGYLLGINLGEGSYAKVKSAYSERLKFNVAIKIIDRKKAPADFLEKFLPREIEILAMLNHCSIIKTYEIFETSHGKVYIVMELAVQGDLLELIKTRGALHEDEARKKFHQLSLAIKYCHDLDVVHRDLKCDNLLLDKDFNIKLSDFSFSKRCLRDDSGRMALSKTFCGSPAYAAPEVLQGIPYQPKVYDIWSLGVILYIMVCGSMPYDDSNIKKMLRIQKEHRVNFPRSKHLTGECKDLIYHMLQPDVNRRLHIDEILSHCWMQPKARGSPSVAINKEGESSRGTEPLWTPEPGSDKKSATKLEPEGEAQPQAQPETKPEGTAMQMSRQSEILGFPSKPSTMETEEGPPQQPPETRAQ
# Sequence of TNK2 (human) (Q07912 whole entry, looked up): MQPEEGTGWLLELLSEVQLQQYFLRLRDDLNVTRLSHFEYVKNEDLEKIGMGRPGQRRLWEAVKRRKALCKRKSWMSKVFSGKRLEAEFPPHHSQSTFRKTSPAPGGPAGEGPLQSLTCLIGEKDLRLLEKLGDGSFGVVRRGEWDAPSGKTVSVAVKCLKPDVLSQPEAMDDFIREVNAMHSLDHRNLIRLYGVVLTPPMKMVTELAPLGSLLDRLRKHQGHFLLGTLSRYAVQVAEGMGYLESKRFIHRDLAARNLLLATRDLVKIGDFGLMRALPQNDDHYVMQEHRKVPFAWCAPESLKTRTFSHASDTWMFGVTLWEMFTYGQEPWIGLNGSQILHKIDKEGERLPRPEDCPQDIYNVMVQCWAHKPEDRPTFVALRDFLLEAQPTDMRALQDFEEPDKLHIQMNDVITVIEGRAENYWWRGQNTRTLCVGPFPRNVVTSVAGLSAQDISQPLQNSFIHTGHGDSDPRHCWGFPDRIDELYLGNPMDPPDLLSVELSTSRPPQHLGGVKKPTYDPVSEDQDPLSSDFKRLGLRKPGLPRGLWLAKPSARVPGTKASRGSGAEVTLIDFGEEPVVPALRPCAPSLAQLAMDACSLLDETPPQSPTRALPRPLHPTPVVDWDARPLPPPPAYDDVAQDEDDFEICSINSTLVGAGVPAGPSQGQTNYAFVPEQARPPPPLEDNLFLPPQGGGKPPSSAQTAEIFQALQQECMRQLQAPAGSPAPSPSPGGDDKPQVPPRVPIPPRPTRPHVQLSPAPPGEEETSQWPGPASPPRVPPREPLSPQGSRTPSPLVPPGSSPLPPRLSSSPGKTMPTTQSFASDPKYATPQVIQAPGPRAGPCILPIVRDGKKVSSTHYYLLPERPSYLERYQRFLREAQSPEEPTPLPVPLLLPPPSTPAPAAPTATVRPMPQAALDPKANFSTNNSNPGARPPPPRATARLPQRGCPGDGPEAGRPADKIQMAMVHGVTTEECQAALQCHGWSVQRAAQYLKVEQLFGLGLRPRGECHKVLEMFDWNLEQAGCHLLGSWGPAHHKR
# Sequence of MAPKAPK2 (human) (P49137 whole entry, looked up): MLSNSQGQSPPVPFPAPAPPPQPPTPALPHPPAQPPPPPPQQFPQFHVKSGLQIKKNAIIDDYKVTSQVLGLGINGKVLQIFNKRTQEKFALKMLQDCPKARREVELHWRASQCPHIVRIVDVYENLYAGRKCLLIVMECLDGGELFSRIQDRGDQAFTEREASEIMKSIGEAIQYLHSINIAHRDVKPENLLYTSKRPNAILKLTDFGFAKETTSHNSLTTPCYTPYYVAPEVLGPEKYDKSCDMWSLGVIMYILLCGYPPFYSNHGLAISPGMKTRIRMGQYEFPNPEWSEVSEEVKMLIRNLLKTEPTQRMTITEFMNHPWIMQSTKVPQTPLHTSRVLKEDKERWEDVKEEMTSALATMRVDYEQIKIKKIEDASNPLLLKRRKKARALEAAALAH
# Sequence of PAK3 (human) (O75914 whole entry, looked up): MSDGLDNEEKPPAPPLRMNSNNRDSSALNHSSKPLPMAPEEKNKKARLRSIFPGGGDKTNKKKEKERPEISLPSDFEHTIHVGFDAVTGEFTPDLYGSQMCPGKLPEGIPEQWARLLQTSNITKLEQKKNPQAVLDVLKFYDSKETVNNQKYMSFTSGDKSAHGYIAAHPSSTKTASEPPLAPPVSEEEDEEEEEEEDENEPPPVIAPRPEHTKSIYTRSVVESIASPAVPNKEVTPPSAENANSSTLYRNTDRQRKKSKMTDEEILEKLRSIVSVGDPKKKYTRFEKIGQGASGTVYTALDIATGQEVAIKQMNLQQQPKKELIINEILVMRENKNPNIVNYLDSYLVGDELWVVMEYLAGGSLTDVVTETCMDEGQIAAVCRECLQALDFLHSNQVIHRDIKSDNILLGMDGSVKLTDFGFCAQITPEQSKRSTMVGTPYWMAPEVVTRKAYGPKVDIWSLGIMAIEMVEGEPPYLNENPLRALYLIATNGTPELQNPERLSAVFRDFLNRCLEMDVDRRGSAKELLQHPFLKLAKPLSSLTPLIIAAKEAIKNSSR
# Sequence of AURKB (human) (Q96GD4 whole entry, looked up): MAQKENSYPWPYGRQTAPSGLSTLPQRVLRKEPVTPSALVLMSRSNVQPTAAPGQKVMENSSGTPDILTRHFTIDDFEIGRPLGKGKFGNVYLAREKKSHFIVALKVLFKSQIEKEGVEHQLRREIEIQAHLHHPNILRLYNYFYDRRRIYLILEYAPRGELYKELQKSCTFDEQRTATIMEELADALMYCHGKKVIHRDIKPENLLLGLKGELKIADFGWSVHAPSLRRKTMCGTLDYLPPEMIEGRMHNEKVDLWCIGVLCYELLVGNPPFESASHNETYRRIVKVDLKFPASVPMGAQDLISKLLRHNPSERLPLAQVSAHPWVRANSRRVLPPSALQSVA
smiles,measurement,setting,value
COc1cccc(-c2cc(=O)c3ccccc3o2)c1N,residual activity,[1],92.5%
same,residual activity,[2],102%
same,residual activity,[3],127%
same,residual activity,[4],65.3%
same,residual activity,[5],101%
same,residual activity,[6],98.3%
same,residual activity,[7],93.6%
same,residual activity,[8],97.7%
same,residual activity,[9],83.5%
same,residual activity,[10],90.9%
same,residual activity,[11],96.3%
same,residual activity,[12],97.3%
same,residual activity,[13],91.6%
same,residual activity,[14],91.3%
same,residual activity,[15],95.1%
same,residual activity,[16],106%
same,residual activity,[17],96.9%
same,residual activity,[18],103%
same,residual activity,[19],85.7%
same,residual activity,[20],93.2%
same,residual activity,[21],91.1%
same,residual activity,[22],102%
same,residual activity,[23],86.7%
same,residual activity,[24],94.7%
same,residual activity,[25],97.5%
same,residual activity,[26],90.7%
same,residual activity,[27],97.6%
same,residual activity,[28],92.5%
same,residual activity,[29],82.4%
same,residual activity,[30],100%
same,residual activity,[31],101%
same,residual activity,[32],96.4%
same,residual activity,[33],91.7%
same,residual activity,[34],91%
same,residual activity,[35],101%
same,residual activity,[36],98.2%
same,residual activity,[37],93.1%
same,residual activity,[38],94.7%
same,residual activity,[39],79.9%
same,residual activity,[40],82.4%
same,residual activity,[41],94.6%
same,residual activity,[42],104%
Cc1cc(Nc2nc(-c3ccccc3)nc3ccccc23)n[nH]1,residual activity,[1],103%
same,residual activity,[2],52%
same,residual activity,[3],101%
same,residual activity,[4],85.4%
same,residual activity,[5],77.1%
same,residual activity,[6],89.8%
same,residual activity,[7],89.1%
same,residual activity,[8],74%
same,residual activity,[9],75.7%
same,residual activity,[10],39.1%
same,residual activity,[11],10.5%
same,residual activity,[12],40%
same,residual activity,[13],77.3%
same,residual activity,[14],70.8%
same,residual activity,[15],67.1%
same,residual activity,[16],31.6%
same,residual activity,[17],96.7%
same,residual activity,[18],99.5%
same,residual activity,[19],105%
same,residual activity,[20],14.8%
same,residual activity,[21],20.2%
same,residual activity,[22],100%
same,residual activity,[23],89%
same,residual activity,[24],97.7%
same,residual activity,[25],79.5%
same,residual activity,[26],90.2%
same,residual activity,[27],95.4%
same,residual activity,[28],110%
same,residual activity,[29],87.1%
same,residual activity,[30],98.6%
same,residual activity,[31],98.2%
same,residual activity,[32],50.7%
same,residual activity,[33],68.8%
same,residual activity,[34],61.5%
same,residual activity,[35],69%
same,residual activity,[36],44.7%
same,residual activity,[37],104%
same,residual activity,[38],97.1%
same,residual activity,[39],10.8%
same,residual activity,[40],76.7%
same,residual activity,[41],45.3%
same,residual activity,[42],81.1%
COc1cc2c(Nc3ccc(Br)cc3F)ncnc2cc1OCC1CCN(C)CC1,residual activity,[1],107%
same,residual activity,[2],95.5%
same,residual activity,[3],55%
same,residual activity,[4],90.6%
same,residual activity,[5],107%
same,residual activity,[8],105%
same,residual activity,[9],100%
same,residual activity,[10],105%
same,residual activity,[11],43.7%
same,residual activity,[12],48.2%
same,residual activity,[14],94.6%
same,residual activity,[15],85.8%
same,residual activity,[16],102%
same,residual activity,[17],96%
same,residual activity,[18],102%
same,residual activity,[19],97.3%
same,residual activity,[20],96.1%
same,residual activity,[21],37.1%
same,residual activity,[22],99.5%
same,residual activity,[23],106%
same,residual activity,[24],99%
same,residual activity,[25],108%
same,residual activity,[26],103%
same,residual activity,[27],98.9%
same,residual activity,[28],103%
same,residual activity,[29],100%
same,residual activity,[30],93.2%
same,residual activity,[31],101%
same,residual activity,[32],85.9%
same,residual activity,[33],106%
same,residual activity,[34],102%
same,residual activity,[35],105%
same,residual activity,[36],85.1%
same,residual activity,[37],50.8%
same,residual activity,[38],102%
same,residual activity,[39],85.4%
same,residual activity,[40],96.6%
same,residual activity,[41],57.5%
same,residual activity,[42],95.7%
